Data on 20 compounds can be found in ChEMBL document CHEMBL2346632, “A one-pot domino synthesis and discovery of highly functionalized dihydrobenzo[b]thiophenes as AChE inhibitors” (Bioorg Med Chem Lett, 2013).

By pIC50 is commonly meant −log10 of the IC50, conventionally taken in molar units.

pIC50: −log10 of the molar value.

In the experiment the target is Acetylcholinesterase (Electrophorus electricus, UniProt O42275). Nature of the experiment: Inhibition of electric eel AChE after 30 mins by Ellman's method.
Acetylcholinesterase, sequence (O42275 whole entry): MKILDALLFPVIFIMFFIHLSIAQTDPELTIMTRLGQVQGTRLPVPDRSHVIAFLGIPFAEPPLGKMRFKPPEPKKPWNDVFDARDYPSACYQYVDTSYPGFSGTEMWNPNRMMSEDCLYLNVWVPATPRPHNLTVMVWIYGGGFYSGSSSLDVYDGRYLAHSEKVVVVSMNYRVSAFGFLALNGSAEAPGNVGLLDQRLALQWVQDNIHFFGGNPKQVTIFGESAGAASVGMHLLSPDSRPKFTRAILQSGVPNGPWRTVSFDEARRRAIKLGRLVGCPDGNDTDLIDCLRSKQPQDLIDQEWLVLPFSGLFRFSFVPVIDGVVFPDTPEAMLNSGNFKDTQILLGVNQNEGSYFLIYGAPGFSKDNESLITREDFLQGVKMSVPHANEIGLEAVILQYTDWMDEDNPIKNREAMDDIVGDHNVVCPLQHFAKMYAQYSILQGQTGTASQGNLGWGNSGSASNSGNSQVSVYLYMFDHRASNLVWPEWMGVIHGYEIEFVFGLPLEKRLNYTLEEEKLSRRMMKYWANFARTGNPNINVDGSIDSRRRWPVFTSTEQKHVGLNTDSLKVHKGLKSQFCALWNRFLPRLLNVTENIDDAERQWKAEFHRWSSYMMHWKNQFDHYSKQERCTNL
Take `CC(C)c1ccc(-c2c(C#N)c(N)c(C#N)c3c2SC(c2ccccc2)C3)cc1` (racemic): the pIC50 was 4.43.
With `CC(C)c1ccc(C2Cc3c(C#N)c(N)c(C#N)c(-c4ccc(Cl)cc4)c3S2)cc1` (racemic), the pIC50 is 4.32. This pIC50 and that of the compound before are within 0.2 log units of each other.
The value for `Cc1ccc(-c2c(C#N)c(N)c(C#N)c3c2SC(c2ccccc2)C3)cc1` (racemic) was 5.02; that for `N#Cc1c(N)c(C#N)c(-c2ccc(F)cc2)c2c1CC(c1ccccc1)S2` (racemic) was 4.49; that for `Cc1ccc(-c2c(C#N)c(N)c(C#N)c3c2SC(c2ccc(Cl)cc2)C3)cc1` (racemic) was 4.76.
`N#Cc1c(N)c(C#N)c(-c2ccc(Cl)cc2)c2c1CC(c1ccc(Cl)cc1)S2` (racemic) had a negative logarithm of the IC50 (pIC50) of 4.47.
The value for `COc1ccc(-c2c(C#N)c(N)c(C#N)c3c2SC(c2ccc(OC)cc2)C3)cc1` (racemic) was 5.38; that for `COc1ccc(-c2c(C#N)c(N)c(C#N)c3c2SC(c2ccc(C)cc2)C3)cc1` (racemic) was 4.95; that for `COc1ccc(-c2c(C#N)c(N)c(C#N)c3c2SC(c2ccc(Cl)cc2)C3)cc1` (racemic) was 4.57.
`COc1ccc(C2Cc3c(C#N)c(N)c(C#N)c(-c4ccc(C)cc4)c3S2)cc1` (racemic) gave a pIC50 of 4.94.
Compound `N#Cc1c(N)c(C#N)c(-c2ccc(Br)cc2)c2c1CC(c1ccccc1)S2` (racemic) gave a pIC50 of 4.42.
The compound `COc1ccc(-c2c(C#N)c(N)c(C#N)c3c2SC(c2ccccc2)C3)cc1` (racemic) showed a negative logarithm of the IC50 (pIC50) of 5.29.
The compound `CC(C)c1ccc(C2Cc3c(C#N)c(N)c(C#N)c(-c4ccc(F)cc4)c3S2)cc1` (racemic) showed a pIC50 of 4.35. Against the preceding compound, the pIC50 is 0.94 log units lower.
For `N#Cc1c(N)c(C#N)c(-c2ccc(Br)cc2)c2c1CC(c1ccc(Cl)cc1)S2` (racemic), the pIC50 is 4.38.
The figure for `Cc1ccc(-c2c(C#N)c(N)c(C#N)c3c2SC(c2ccc(C)cc2)C3)cc1` (racemic) is 5.37; for `N#Cc1c(N)c(C#N)c(-c2ccc(F)cc2)c2c1CC(c1ccc(Cl)cc1)S2` (racemic) it is 4.41; for `N#Cc1c(N)c(C#N)c(-c2ccc(Cl)cc2)c2c1CC(c1ccccc1)S2` (racemic) it is 4.54.
As to `Cc1ccc(C2Cc3c(C#N)c(N)c(C#N)c(-c4ccc(Br)cc4)c3S2)cc1` (racemic), the pIC50 was 4.62. The pIC50 values of the last two compounds are within 0.2 log units of each other.
`Cc1ccc(C2Cc3c(C#N)c(N)c(C#N)c(-c4ccc(F)cc4)c3S2)cc1` (racemic): the negative-log IC50 (pIC50) was 4.74.
Take `Cc1ccc(C2Cc3c(C#N)c(N)c(C#N)c(-c4ccc(Cl)cc4)c3S2)cc1` (racemic): the pIC50 is 4.87.
